The subject of experiment [1] is K. pneumoniae expressing the Class A carbapenemase KPC-2. In words: microbe, parasite or virus in culture. Particulars: in the presence of fixed 8 μg/mL Ceftazidime. The source says: To determine the ability of test compounds to potentiate the inhibition of the growth of bacterial strains producing beta-lactamase enzymes, classic cell based screening assays were employed. Four bacteria strains producing beta-lactamase enzymes were used: K. pneumoniae expressing the Class A Extended Spectrum Beta-Lactamase (ESBL) CTX-M-15, E. coli expressing the Class A ESBL SHV-5, E. cloacae expressing the Class C P99+, and K. pneumoniae expressing the Class A carbapenemase KPC-2. In order to evaluate the ability of test compounds to inhibit beta-lactamase activity, Applicants used a modification of the broth microdilution assay. The assay was conducted in Cation Adjusted Mueller Hinton Broth (CAMHB, BD # 212322, BD Diagnostic Systems, Sparks, Md.). Bacteria strains were grown for 3-5 hours in CAMBH broth. All four strains were grown in presence of 50 μg/mL ampicillin to ensure resistance is maintained. In the meantime, test compounds were diluted in DMSO to a 0.1 mg/mL stock. The compounds were added to a microtiter plate and were diluted in 2-fold serial dilutions in CAMHB in a final concentration range of 8 μg/mL to 0.015 μg/ml. An overlay of CAMHB containing a cephalosporin was added to the compounds at a final static concentration of 8 μg/ml. […] Each of these compound plates are made in quadruplicate, one for each bacteria strain. In addition to the titration of test compounds the MICs of a panel of cephalosporins is also tested to ensure the strains are behaving consistently from test to test. Once the test compound and cephalosporin are added the plates can be inoculated. Inocula are conducted according to CLSI broth microdilution method. After inoculation the plates are incubated for 16-20 hours at 37° C. then the Minimal Inhibitory Concentration (MIC) of the test compound is determined visually.

The next experiment addresses T1, Class A ESBL SHV-5 (Klebsiella pneumoniae, UniProt P0A3M1).
T1 construct: made in house; host or cells: E. coli BL21(DE3) for purified enzyme; E. coli cells containing SHV-5 for extracts
Format: biochemical, E. coli. Particulars: nitrocefin 100 μM, PBS pH 7.0, read-out: SHV-5 IC50 Range. The protocol:
(§1) Isolation of β-lactamases. For all examples, purified beta-lactamase enzymes were used to measure a compounds' ability to inhibit the Class A ESBL CTXM-15, the Class C P99 AmpC and the Class A carbapenemase KPC-2. […] The enzyme preparations are described herein.
For the preparation of SHV-5 extracts, E. coli cells containing SHV-5 were cultured overnight with shaking at a volume of 20 mL. They were further diluted 10-fold and grown to mid-log phase (OD at 600 nm, 0.5-0.8) in Mueller-Hinton II (MH-II) broth at 37° C. The cells were pelleted at 5000 g, washed and resuspended in 2 mL PBS pH 7.0. The β-lactamase was extracted by four cycles of freezing and thawing followed by centrifugation. β-lactamase activity in the extract was measured with the chromogenic cephalosporin nitrocefin. The amount of protein in each β-lactamase preparation was determined by the bicinchoninic acid (BCA) assay.
(§2) For the isolation and purification of SHV-5, p99 AmpC, KPC-2 and CTX-M15 β-lactamases, E. coli BL21(DE3) bacterial cells carrying expression plasmids (expressed as native untagged proteins) for the individual β-lactamases were grown in 1 L of Superbroth (Teknova Inc. Hollister, Calif.) supplemented with 100 μg/ml kanamycin and 1×5052 (0.5% glycerol, 0.05% glucose and 0.2% α-lactose) at 35° C. for 18-20 hours. Cells were harvested by centrifugation (4,000×g, 4° C., 20 min), and resuspended in 50 ml of 10 mM HEPES pH 7.5 ( 1/20 of the initial volume). The cells were lysed by sonication (5 pulses of 45 seconds) at 45 W on ice. The lysates were clarified by centrifugation at 10,000×g for 40 minutes at 4° C. Samples were diluted 5-fold in 50 mM sodium acetate pH 5.0, stored overnight at 4° C., after which they were centrifuged at 10,000×g for 30 minutes to clarify, and filtered through 0.45 μm filters. The samples were loaded onto a 5 ml Capto S sepharose cation exchange column (GE Healthcare) pre-equilibrated with 50 mM sodium acetate pH 5.0. The column was washed with 5 column volumes of 50 mM sodium acetate pH 5.0 to wash out unbound protein and a linear gradient of NaCl (0 to 500 mM) was used to elute the protein (over 16 CV) from the column. Fractions were assayed for β-lactamase activity using Centa (Calbiochem, Gibbstown, N.J.) as a reporter β-lactamase substrate for activity in the isolated fractions. Active fractions were pooled, concentrated and further purified by gel filtration chromatography on a Superdex 75 prep grade gel filtration column (GE Healthcare, Piscataway, N.J.) pre-equilibrated in 50 mM Hepes pH 7.5, 150 mM NaCl. Active fractions were pooled concentrated, quantitated by BCA protein determination (Thermo Scientific, Rockford, Ill.), and frozen at −80° C. in 20% glycerol until use.
(§3) β-lactamase Inhibition. To determine the level of inhibition of β-lactamaseenzymes, compounds were diluted in PBS at pH 7.0 to yield concentrations between 100 and 0.005 μM in microtiter plates. An equal volume of diluted enzyme stock was added, and the plates were incubated at 37° C. for 10 min. Nitrocefin solution was then dispensed as substrate into each well at a final concentration of 100 μM, and the plates were immediately read with the kinetic program at 486 nm for 10 min on the SPECTRAMAX® Plus^384 (high-throughput microplate spectrophotometer; Molecular Devices Corp., Sunnyvale, Calif.). Maximum rates of metabolism were then compared to those in control wells (without inhibitors), and percentages of enzyme inhibition were calculated for each concentration of inhibitor. The concentration of inhibitor needed to reduce the initial rate of hydrolysis of substrate by 50% (IC50) was calculated as the residual activity of β-lactamase at 486 nm using the SoftMax Pro 5.0 software (Molecular Devices Corp.).

Another experiment concerns the target T2, Class A ESBL CTXM-15 (Escherichia coli, UniProt Q9EXV5).
T2 construct: made in house; host or cells: E. coli BL21(DE3)
Briefly: β-lactamase enzyme inhibition (nitrocefin hydrolysis), CTXM-15. The note with it: purified enzyme; nitrocefin 100 μM, PBS pH 7.0; read-out: CTXM-15 IC50 Range. In kind it is biochemical. The procedure:
as §1, §2, §3

A further experiment addresses T3, Class C P99 AmpC (Enterobacter cloacae, UniProt P05364).
T3 construct: made in house; host or cells: E. coli BL21(DE3)
Format: biochemical. Particulars: purified enzyme; nitrocefin 100 μM, PBS pH 7.0; read-out: P99 AmpC IC50 Range. The procedure: as §1, §2, §3

Experiment [2] has as its target T4, Class A carbapenemase KPC-2 (Klebsiella pneumoniae, UniProt Q9F663).
T4 construct: made in house; host or cells: E. coli BL21(DE3)
Briefly: β-lactamase enzyme inhibition (nitrocefin hydrolysis), KPC-2. Format: biochemical. The note with it: purified enzyme; nitrocefin 100 μM, PBS pH 7.0; read-out: KPC-2 IC50 Range. The procedure: as §1, §2, §3

Where [3] appears, read: cellular extracts of E. coli containing SHV-5 (Examples 2-30).
Where [4] appears, read: purified beta-lactamase enzyme (Examples 1 and 31-64).

SMILES strings stand for the structures. Where two headings read alike, the source gives them in different places.

T3 sequence (P05364 21-381): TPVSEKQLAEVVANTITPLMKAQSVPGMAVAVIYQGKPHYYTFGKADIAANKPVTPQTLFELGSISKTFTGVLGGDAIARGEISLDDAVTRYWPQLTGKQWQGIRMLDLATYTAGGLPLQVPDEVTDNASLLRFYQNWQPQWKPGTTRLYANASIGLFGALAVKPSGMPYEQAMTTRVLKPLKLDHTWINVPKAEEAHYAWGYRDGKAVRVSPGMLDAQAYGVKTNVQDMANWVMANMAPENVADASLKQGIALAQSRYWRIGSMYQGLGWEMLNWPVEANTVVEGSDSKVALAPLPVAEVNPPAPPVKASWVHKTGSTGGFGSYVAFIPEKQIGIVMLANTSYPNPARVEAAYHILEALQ
T2 sequence (Q9EXV5 entry or part of it): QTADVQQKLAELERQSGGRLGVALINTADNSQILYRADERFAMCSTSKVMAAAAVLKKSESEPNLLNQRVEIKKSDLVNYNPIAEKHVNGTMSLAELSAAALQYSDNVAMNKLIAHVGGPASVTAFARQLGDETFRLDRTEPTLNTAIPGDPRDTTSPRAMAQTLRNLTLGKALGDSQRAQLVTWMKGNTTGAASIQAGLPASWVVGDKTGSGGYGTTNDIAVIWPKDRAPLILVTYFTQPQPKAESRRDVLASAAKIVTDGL
T4 sequence (Q9F663 25-293 limits assumed): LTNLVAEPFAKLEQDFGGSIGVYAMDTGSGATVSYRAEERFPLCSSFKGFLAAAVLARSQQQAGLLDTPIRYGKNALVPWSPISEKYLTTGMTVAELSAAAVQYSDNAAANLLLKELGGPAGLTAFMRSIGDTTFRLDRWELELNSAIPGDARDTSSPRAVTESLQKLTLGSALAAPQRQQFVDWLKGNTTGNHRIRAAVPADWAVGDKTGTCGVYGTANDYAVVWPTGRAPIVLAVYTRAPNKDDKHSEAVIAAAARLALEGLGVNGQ
T1 sequence (P0A3M1 22-286): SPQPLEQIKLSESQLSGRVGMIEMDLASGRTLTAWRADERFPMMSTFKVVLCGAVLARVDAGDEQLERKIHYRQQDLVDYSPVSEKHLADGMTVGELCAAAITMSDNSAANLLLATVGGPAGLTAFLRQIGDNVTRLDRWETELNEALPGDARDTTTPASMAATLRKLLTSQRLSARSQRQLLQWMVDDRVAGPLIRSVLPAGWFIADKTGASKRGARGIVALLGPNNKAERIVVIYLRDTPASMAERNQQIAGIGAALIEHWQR

For the molecule `O=C(O)c1cccc(C[C@H](NC(=O)c2cccc3ccccc23)B(O)O)c1O` [Example 27, (1R)-1-(1-naphthoylamino)-2-(2-hydroxy-3-carboxyphenyl)ethyl-1-boronic acid], in experiment [1], the “MIC of example compound, K. pneumoniae KPC-2 + 8 μg/mL CAZ” value (“MIC of example compound” below) is reported as “C (C represents an MIC of <1 μg/mL)”. For the same molecule, the half-maximal inhibitory concentration (IC50) (as a rule, the concentration at which inhibition is half-maximal) on Class A ESBL SHV-5 (setting [3]) is 10 to 100 nM; at Class A ESBL CTXM-15 it was under 10 nM; at Class C P99 AmpC it was under 10 nM; in experiment [2], under 10 nM.

On to `Cc1ccccc1C(=O)N[C@@H](Cc1cccc(C(=O)O)c1O)B(O)O` [Example 30, (1R)-1-(2-methylbenzoylamino)-2-(2-hydroxy-3-carboxyphenyl)ethyl-1-boronic acid], for which the “MIC of example compound” value in experiment [1] was “C (C represents an MIC of <1 μg/mL)”. The IC50 was 10 to 100 nM at Class A ESBL SHV-5 (setting [3]), under 10 nM on Class A ESBL CTXM-15, under 10 nM at Class C P99 AmpC and under 10 nM in experiment [2].

In the case of `O=C(N[C@@H](Cc1cccc(C(=O)O)c1O)B(O)O)c1ccc(Cl)cc1` [Example 32, (1R)-1-(4-Chloro-benzoyl)-amino-1-(3-carboxy-2-hydroxy)benzyl-methylboronic acid], the “MIC of example compound” value in experiment [1] was “C (C represents an MIC of <1 μg/mL)”. Further, the IC50 at Class A ESBL SHV-5 (setting [4]) is 10 to 100 nM; at Class A ESBL CTXM-15, under 10 nM; on Class C P99 AmpC, under 10 nM; in experiment [2], under 10 nM.

Take `COc1ccc(C(=O)N[C@@H](Cc2cccc(C(=O)O)c2O)B(O)O)cc1` [Example 33, (1R)-1-(4-Methoxybenzoyl)-amino-1-(3-carboxy-2-hydroxy)benzyl-methylboronic acid]: in experiment [1], the “MIC of example compound” value is reported as “C (C represents an MIC of <1 μg/mL)”. Further, the IC50 on Class A ESBL SHV-5 (setting [4]) is 100 to 1000 nM; on Class A ESBL CTXM-15, under 10 nM; at Class C P99 AmpC, under 10 nM; in experiment [2] it was under 10 nM.

`O=C(N[C@@H](Cc1cccc(C(=O)O)c1O)B(O)O)c1ccccc1O` [Example 35, (1R)-1-(2-hydroxybenzoylamino)-2-(2-hydroxy-3-carboxyphenyl)ethyl-1-boronic acid]: in experiment [1], the “MIC of example compound” value was “C (C represents an MIC of <1 μg/mL)”. Also, the IC50 at Class A ESBL SHV-5 (setting [4]) was 10 to 100 nM; at Class A ESBL CTXM-15 it was under 10 nM; at Class C P99 AmpC, under 10 nM; in experiment [2], 10 to 100 nM.

Consider `O=C(CN1C(=O)c2ccccc2C1=O)N[C@@H](Cc1cccc(C(=O)O)c1O)B(O)O` [Example 45, (1R)-1-(2-(1,3-dioxoisoindolin-2-yl)acetylamino)-2-(2-hydroxy-3-carboxyphenyl)ethyl-1-boronic acid], for which the “MIC of example compound” value in experiment [1] is “C (C represents an MIC of <1 μg/mL)”. For the same molecule, the IC50 (at Class A ESBL SHV-5 (setting [4]); at Class A ESBL CTXM-15; at Class C P99 AmpC; in experiment [2]) was under 10 nM in each case.

Take `O=C(N[C@@H](Cc1cccc(C(=O)O)c1O)B(O)O)c1ccncc1` [Example 55, (1R)-1-(Pyridine-4-carbonyl-amino)-2-(2-hydroxy-3-carboxyphenyl)ethyl-1-boronic acid]: the IC50 was 10 to 100 nM at Class A ESBL SHV-5 (setting [4]), under 10 nM on Class A ESBL CTXM-15, under 10 nM on Class C P99 AmpC and under 10 nM in experiment [2].

Consider `O=C(N[C@@H](Cc1cccc(C(=O)O)c1O)B(O)O)c1cccc(-n2ccnc2)c1` [Example 57, (1R)-1-(3-Imidazol-1-yl-benzoylaminoamino)-2-(2-hydroxy-3-carboxyphenyl)ethyl-1-boronic acid], for which the “MIC of example compound” value in experiment [1] is reported as “C (C represents an MIC of <1 μg/mL)”. For the same molecule, the IC50 (on Class A ESBL SHV-5 (setting [4]); on Class A ESBL CTXM-15; at Class C P99 AmpC; in experiment [2]) was under 10 nM each time.

In the case of `O=C(N[C@@H](Cc1cccc(C(=O)O)c1O)B(O)O)c1cnccn1` [Example 58, (1R)-1-(Pyrazine-2-carbonyl-amino)-2-(2-hydroxy-3-carboxyphenyl)ethyl-1-boronic acid], the “MIC of example compound” value in experiment [1] is “C (C represents an MIC of <1 μg/mL)”. The IC50 at Class A ESBL SHV-5 (setting [4]) was 10 to 100 nM; on Class A ESBL CTXM-15, under 10 nM; at Class C P99 AmpC it was 10 to 100 nM; in experiment [2] it was under 10 nM.

With `CC(=O)Nc1nc(CC(=O)N[C@@H](Cc2cccc(C(=O)O)c2O)B(O)O)cs1` [Example 63, (1R)-1-((2-Acetylamino-thiazol-4-yl)-acetylamino)-2-(2-hydroxy-3-carboxyphenyl)ethyl-1-boronic acid], the “MIC of example compound” value in experiment [1] is reported as “C (C represents an MIC of <1 μg/mL)”. Further, the IC50 (at Class A ESBL SHV-5 (setting [4]); at Class A ESBL CTXM-15; on Class C P99 AmpC; in experiment [2]) was under 10 nM in each case.
